US5482930A, “Anti-inflammatory composition and method with des-Tyr dynorphin and analogues” (The Regents of the University of California, priority 1993, dated 1996)
Where a name gives a salt, the structure may show the parent alone. Residues, ends and D or L forms follow the SMILES beside them.

Key:
[1] = Blood pressure and oxygenation after i.v. dose; assay type: in vivo, rat; conditions: 0.2 mg/kg i.v.
[2] = system: thermal edema of the hind paw; experiment: Heat-induced swelling and edema of the rat hind paw (58° C. water, one minute); assay type: in vivo; conditions: for ED50, reducing thermal edema: i.v., anesthetized rat, hind paw 58° C. water one minute; for anti-inflammatory effect (FIG. 1): FIG. 1 legend
Experimental: In one bioassay, dynorphin A (2-17), synthesized by standard solid phase methods, was dissolved in sterile saline and injected intravenously via a branch of the femoral vein at various doses into an anesthetized rat. Ten minutes later a hind paw was immersed in 58° C. water for one minute. Thirty minutes after exposure to heat, the paw was removed at the ankle joint and weighed. The percent increase in weight of the heated paw relative to the unheated paw was taken as the index of inflammatory thermal edema. The general principles of this method have been discussed by Wei and Thomas, Ann. Rev. of Pharmacol. and Toxicol., 33, pp. 91-108 (1993).
Anesthetized rats were injected intravenously (i.v.) with saline (1 ml/kg) or naloxone hydrochloride ([…]) 5 minutes prior to i.v. injection with saline ([…]), dynorphin A (2-17) (0.5 mg/kg), or N-acetyldynorphin A (6-12 )-amide (3 mg/kg). Ten minutes after the second injection, the rat's hind paw was immersed in 58° C. water for one minute and 30 minutes later the animals were euthanized and the heated and unheated paw weights were measured. After saline/saline or naloxone HCl/saline, the percent increase in the weight of the heated paw, relative to the unheated paw, were 104±10% and 98±9%, respectively. The percent increases for the saline/dynorphin A (2-17) and naloxone HCl/dynorphin A (2-17) groups were 26±6% and 26±5%, respectively. The percent increases for the saline/N-acetyl-dynorphin A (6-12) amide and naloxone HCl/N-acetyl-dynorphin A (6-12) amide groups were 21±3% and 27±12%, respectively.

[3] = Direct comparison of dynorphin A analogs with an amide or a carboxyl C-terminus (ED50, bioassay not given); assay type: in vivo; conditions: i.v.; amide versus carboxyl C-terminus
Experimental: Similar results were obtained for D-Ala^2 -dynorphin A (1-17) amide, with an ED50 value of 0.5 mg/kg i.v. versus a value of 1.0 mg/kg i.v. for D-Ala^2 -dynorphin A (1-17).

[4] = system: neurogenic inflammation; conditions: intravenous route; relative to saline-injected controls; cited from earlier work
[5] = system: edema in the anesthetized rat's paw after thermal injury; conditions: 3.75 mg/kg administered intravenously; cited from earlier work

## CC[C@H](C)[C@H](NC(=O)[C@H](CCCNC(=N)N)NC(=O)[C@H](CCCNC(=N)N)NC(=O)[C@H](CC(C)C)NC(=O)[C@H](Cc1ccccc1)NC(=O)CNC(=O)CN)C(=O)N[C@@H](CCCNC(=N)N)C(=O)N1CCC[C@H]1C(=O)N[C@@H](CCCCN)C(=O)N[C@@H](CC(C)C)C(=O)N[C@@H](CCCCN)C(=O)N[C@@H](Cc1c[nH]c2ccccc12)C(=O)N[C@@H](CC(=O)O)C(=O)N[C@@H](CC(N)=O)C(=O)N[C@@H](CCC(N)=O)C(=O)O [Embodiment NO:1, G-G-F-L-R-R-I-R-P-K-L-K-W-D-N-Q]
[1]
  cyanosis / oxygenation: no evidence of cyanosis
  effect on blood pressure: slight fall in blood pressure
[1]; then mean arterial pressure returned to baseline
  duration of fall in blood pressure: 10 to 15 min

## CC[C@H](C)[C@H](NC(=O)[C@H](CCCNC(=N)N)NC(=O)[C@H](CCCNC(=N)N)NC(C)=O)C(=O)N[C@@H](CCCNC(=N)N)C(=O)N1CCC[C@H]1C(=O)N[C@@H](CCCCN)C(=O)N[C@H](CC(C)C)C(N)=O [Embodiment NO:4, Ac-R-R-I-R-P-K-l-NH2] (HELM PEPTIDE1{[ac].R.R.I.R.P.K.[dL].[am]}$$$$V2.0)
[2]
  ED50, reducing thermal edema: 2.2 (1.2-4.1) mg/kg

## C=CCN1CC[C@]23c4c5ccc(O)c4O[C@H]2C(=O)CC[C@@]3(O)[C@H]1C5 [naloxone HCl, naloxone hydrochloride]
[2]; naloxone HCl (4 ml/kg) i.v. then saline, no peptide
  percent increase in the weight of the heated paw, relative to the unheated paw: 98±9%

## Ac-RRIRPKL-NH2 [Embodiment NO:3, Ac-R-R-I-R-P-K-L-NH2]
[2]
  ED50, reducing thermal edema: 1.4 (0.6-3.7) mg/kg
[2]; naloxone HCl pretreatment, then peptide 3 mg/kg i.v.
  percent increase in the weight of the heated paw, relative to the unheated paw: 27±12%
[2]; peptide 3 mg/kg i.v., naloxone 4 mg/kg i.v.
  antagonism of anti-inflammatory effect by naloxone: not antagonized
[2]; saline pretreatment, then peptide 3 mg/kg i.v.
  percent increase in the weight of the heated paw, relative to the unheated paw: 21±3%

## D-Ala^2 -dynorphin A (1-17)
[3]
  ED50: 1.0 mg/kg

## D-Ala^2 -dynorphin A (1-17) amide
[3]
  ED50: 0.5 mg/kg

## D-Ala^2 -dynorphin A (2-17)
[3]
  ED50: 1.2 mg/kg

## D-Ala^2 -dynorphin A (2-17) amide
[3]
  ED50: 0.65 mg/kg

## dynorphin A (1-10) amide
[4]
  median effective dose (ED50) producing 50% inhibition of dye leakage: 5.0 (3.5-7.2) mg/kg

## dynorphin A (1-13)
[4]
  median effective dose (ED50) producing 50% inhibition of dye leakage: 1.9 (1.5-2.4) mg/kg
[5]
  prevention of edema after thermal injury: prevent edema
[2]
  anti-inflammatory effect (FIG. 1): substantially lacking potency
  ED50, reducing thermal edema: 3.2 (1.9-5.5) mg/kg

## dynorphin A (1-17)
[2]
  anti-inflammatory effect (FIG. 1): substantially lacking potency
  ED50, reducing thermal edema: 1.7 (1.2-2.4) mg/kg
